Laboratory results from US20120302569A1, “PHENYL-THIAZOLYL INHIBITORS OF PRO-MATRIX METALLOPROTEINASE ACTIVATION” (priority 2011, published 2012).

Key:
[1] = molecular target: T1, MMP9 mediated gelatinase activity (Rattus norvegicus, UniProt P50282); test: In situ zymography of gelatinase activity in livers of SCW-induced rats; format: in vivo; parameters: reduction of liver gelatinase activity: reference not given here; settings: for Intensity Mean / Intensity Rat 1 / Intensity Rat 2 / Intensity Rat 3: Day 25-28, liver
T1 construct: from tissue; host or cells: liver cryosections of female Lewis rats
From the text: In situ zymography provides an alternative approach to assess active MMP9 in tissues (J Histochem Cytochem; 2004; 52:711-722). Tissue sections are overlain with fluorescein-conjugated gelatin wherein the conjugation is sufficiently dense to cause the fluorescein to be dye-quenched (DQ). Proteolytic degradation of the DQ-gelatin releases the fluorescein from the quenching effect giving rise to bright green fluorescence at the site of degradation. Because in situ zymography requires the use of frozen sections, calcified tissues are problematic. However, an additional feature of the SCW arthritis model is the development of hepatic granulomatous disease (J Immunol; 1986; 137:2199-2209), and MMP9 reportedly plays a role in macrophage recruitment in the granulomas response to mycobacteria (Infect Immun; 2006; 74:6135-6144). Consequently, granulomatous livers from SCW-treated rats were assessed for active MMP9 by in situ zymography.
As described above, Female Lewis (LEW/N) rats, 5-6 weeks of age (80-100 g) were injected (i.p.) with saline or SCW PG-PS. On day 28, when the granulomatous response was well established, animals were sacrificed and livers were frozen in OCT cryo-sectioning medium and 10 μm sections were cut on a Cryome HM 500 M cryotome and mounted on glass microscope slides. Sections were air dried briefly. MMP9 was confirmed as the source of the gelatinase activity in the liver by treating liver sections with monoclonal antibodies directed against the active site of the two major gelatinases MMP9 and MMP2. Liver sections overlain with 50 μL of 100 μg/mL neutralizing mouse monoclonal antibodies directed against MMP9 (Calbiochem, clone 6-6B), or MMP2 (Millipore, clone CA-4001), or with PBS for 1 hr at room temperature. Tissues were rinsed once with PBS, blotted, and briefly air dried and then overlain with DQ-gelatin (Invitrogen) dissolved to 1 mg/mL in deionized water and then diluted 1:10 in 1% wt/vol low gelling point agarose type VII (Sigma) in PBS. The sections were covered with coverslips, incubated in the dark at room temperature for 20 min, and imaged on an Olympus IX80 inverted microscope fitted with fluorescence optics, using SlideBook™ imaging software (Intelligent Imaging Innovations, Inc., Philadelphia, Pa.; version 5.0). Fluorescence intensity was determined (Table 8). When compared to a saline-treated rat, gelatinase activity was abundantly expressed in granulomatous liver sections obtained from a rat with SCW arthritis.
Next, liver in situ zymography was used to assess the relative presence of active MMP9 in rats dosed with vehicle vs. Compound α. Female Lewis (LEW/N) rats, 5-6 weeks of age (80-100 g) were injected (i.p.) with saline or SCW PG-PS. Commencing on day 25, randomized groups of rats (n=3 rats/group) received vehicle or 20 or 50 mg/kg Compound α BID by oral gavage.
Vehicle consisted of an aqueous mixture containing 2% (v:v) N-methylpyrrolidone, 5% (v:v) glycerine, and 20% (w:v) captisol. Treatment continued daily through the morning of day 28. Four hrs after the AM dose on day 28, rats were sacrificed and livers assessed for active MMP9 by in situ zymography (Table 9). Gelatinase activity was increased markedly in SCW-induced rats, but activity was reduced by approximately 80% in animals treated with 50 mg/kg Compound α.

proMMP9 = molecular target: T2, proMMP9 (Homo sapiens, UniProt P14780); test: Activation of proMMP9 by human fetal lung fibroblast (HFL-1) cultures (Western blot); format: cell-based; settings: 3.3 μM Compound α
T2 construct: host or cells: HFL-1 human fetal lung fibroblasts
Procedure: Activation of proMMP9 by Human Fetal Lung Fibroblast Cultures
Compound α was assessed additionally for ability to block the maturation of proMMP9 to active MMP9 in cultures of human fetal lung fibroblasts (HFL-1, American Type Culture Collection #CCL-153). Unlike rat synoviocytes, HFL-1 cells were unable to process proMMP9 to the active form without addition of neutrophil elastase. […] Rather, the function of elastase in this assay may be to inactivate tissue inhibitors of matrix metalloproteinases (TIMPs) that repress endogenous pathways of MMP9 activation (Am J Respir Crit. Care Med; 1999; 159:1138-46).
HLF-1 were maintained in monolayer culture in DMEM with 10% FCS and were used between passage numbers 5-15. HLF-1 were embedded in collagen gels as described for rat SCW synoviocytes (vida supra). Half mL gels containing 0.4 million cells were dislodged into wells of 12 well Costar plates containing 1 mL/well of DMEM adjusted to contain 0.05% BSA and 100 ng/mL human TNFα (R&D Systems Cat #210-TA/CF). After overnight culture (37° C. and 5% CO2) wells were adjusted to contain an additional 0.5 mL of DMEM containing 0.05% BSA and with or without 13.2 μM Compound α (final concentration was 3.3 μM Compound α). Next, cultures were adjusted to contain 30 nM human elastase (Innovative Research). The plates were cultured an additional 72 hrs, at which time MMP9 secreted into the conditioned media was bound to gelatin-sepharose and evaluated by Western blot analysis as described for the rat synoviocyte cultures (vida supra). mAb-51/82 detected three forms of MMP9 in HFL-1 cultures.
A second experiment was performed to determine if the 80 kD form was mature active MMP9 and to determine the potency of Compound α as an inhibitor of MMP9 maturation in this assay. HFL-1 cells embedded in collagen gels were cultured as described above in the presence of TNFα overnight and the cultures were then adjusted to contain 30 nM elastase and graded concentrations of Compound α for an additional 72 hrs at which time MMP9 secreted into the conditioned media was bound to gelatin-sepharose and evaluated by Western blot analysis for active MMP9 using pAb-1246 raised against the N-terminal neoepitope of active MMP9 (Table 5). In the absence of Compound α, pAb-1246 readily detected MMP9 with an electrophoretic mobility of approximately 80 kD. […] Inhibition occurred over a dose range with an IC50 of approximately 0.3 μM Compound α.

T1 sequence (P50282 108-708): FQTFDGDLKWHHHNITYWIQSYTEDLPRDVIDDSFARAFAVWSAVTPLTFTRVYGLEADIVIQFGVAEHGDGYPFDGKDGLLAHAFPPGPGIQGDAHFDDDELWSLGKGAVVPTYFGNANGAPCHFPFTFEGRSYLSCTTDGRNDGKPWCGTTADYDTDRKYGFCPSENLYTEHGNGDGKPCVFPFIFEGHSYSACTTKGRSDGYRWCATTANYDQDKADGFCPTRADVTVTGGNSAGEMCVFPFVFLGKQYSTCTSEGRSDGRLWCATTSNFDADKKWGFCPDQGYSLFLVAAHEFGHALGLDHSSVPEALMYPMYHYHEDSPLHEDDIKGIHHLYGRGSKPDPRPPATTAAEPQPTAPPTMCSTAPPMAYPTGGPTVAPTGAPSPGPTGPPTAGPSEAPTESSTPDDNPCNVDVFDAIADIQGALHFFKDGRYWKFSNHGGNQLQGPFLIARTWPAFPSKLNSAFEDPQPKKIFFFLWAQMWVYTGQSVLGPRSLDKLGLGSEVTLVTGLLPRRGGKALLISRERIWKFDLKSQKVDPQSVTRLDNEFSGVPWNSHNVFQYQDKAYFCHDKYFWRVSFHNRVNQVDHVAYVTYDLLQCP
T2 sequence (P14780 20-707 limits assumed): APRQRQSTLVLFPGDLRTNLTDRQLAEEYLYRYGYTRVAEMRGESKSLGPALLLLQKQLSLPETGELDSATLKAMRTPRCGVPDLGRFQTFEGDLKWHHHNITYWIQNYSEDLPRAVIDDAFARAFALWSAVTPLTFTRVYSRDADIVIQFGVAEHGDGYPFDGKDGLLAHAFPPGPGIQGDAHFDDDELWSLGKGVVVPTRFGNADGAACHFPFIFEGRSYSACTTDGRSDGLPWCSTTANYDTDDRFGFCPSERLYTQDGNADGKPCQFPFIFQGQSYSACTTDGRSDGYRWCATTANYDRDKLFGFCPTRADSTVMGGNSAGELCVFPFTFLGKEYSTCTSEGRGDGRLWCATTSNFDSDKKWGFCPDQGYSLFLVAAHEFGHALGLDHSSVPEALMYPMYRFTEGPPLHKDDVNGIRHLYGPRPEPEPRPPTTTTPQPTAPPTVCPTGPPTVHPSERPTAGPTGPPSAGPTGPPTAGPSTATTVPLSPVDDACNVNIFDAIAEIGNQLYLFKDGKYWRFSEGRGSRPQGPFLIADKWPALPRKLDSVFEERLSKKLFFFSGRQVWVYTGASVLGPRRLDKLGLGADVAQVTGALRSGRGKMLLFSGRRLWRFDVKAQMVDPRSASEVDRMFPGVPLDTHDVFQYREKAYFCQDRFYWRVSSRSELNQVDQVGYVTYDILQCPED

Intensity Mean ([1]; 20 mg/kg BID oral): 55.2 RLU × 10^6
Intensity Rat 1 ([1]; 20 mg/kg BID oral): 43.0 RLU × 10^6
Intensity Rat 2 ([1]; 20 mg/kg BID oral): 69.0 RLU × 10^6
Intensity Rat 3 ([1]; 20 mg/kg BID oral): 53.7 RLU × 10^6
reduction of liver gelatinase activity ([1]; 50 mg/kg BID oral, Day 25-28): approximately 80%
Intensity Mean ([1]; 50 mg/kg BID oral): 11.1 RLU × 10^6
Intensity Rat 1 ([1]; 50 mg/kg BID oral): 3.2 RLU × 10^6
Intensity Rat 2 ([1]; 50 mg/kg BID oral): 25.6 RLU × 10^6
Intensity Rat 3 ([1]; 50 mg/kg BID oral): 4.5 RLU × 10^6
Percent of total signal 80 kD (proMMP9): 7%
Percent of total signal 86 kD (proMMP9): 47%
Percent of total signal 100 kD (proMMP9): 46%
Signal Total (proMMP9; 30 nM elastase, 72 hrs, mAb-L51/82): 91346 INT*mm^2
Compound: Cc1nc(C)c(-c2csc(Nc3cc(S(N)(=O)=O)ccc3OC(C)C)n2)s1 [Compound α, 3-(2′,4′-Dimethyl-[4,5′]bithiazolyl-2-ylamino)-4-isopropoxy-benzenesulfonamide.HBr]
